Measured values published in patent publication US10131670B2, “Bicyclic heteroaryl derivatives as CFTR potentiators” (CYSTIC FIBROSIS FOUNDATION THERAPEUTICS, INC., priority 2016, dated 2018).

Key:
F508del V470 CFTR = F508del V470 CFTR (Homo sapiens, UniProt P13569, DEL508-508); experiment: FRT Ion Flux Assay of F508del CFTR Potentiation; type: cell-based; settings: FRT cells expressing F508del V470 CFTR and halide-sensitive YFP, forskolin 20 uM, 30 min
Description: FRT Ion Flux Assay of F508del CFTR Potentiation
Fischer rat thyroid (FRT) cell lines stably expressing recombinant F508del V470 CFTR and halide-sensitive yellow fluorescent protein (Pedemonte et al., J. Clin. Invest. 115(9) 2564-71 (2005)) were seeded at 25,000 cells/well in 50 uL/well of culture medium into black-walled, clear bottom tissue-culture-treated 384-well plates (Corning, cat. no. 3712). After one day, the cells were pre-incubated at 27° C./5% CO2 for 16-24 hours. The cells were then washed with dPBS and treated with forskolin (20 uM) and test compound for 30 min by addition of 20 uL of compound dilution buffer (dPBS containing forskolin and test compound). Plates were loaded into FLIPR384 fluorescence imaging plate reader (Molecular Devices). After an initial fluorescence reading, iodide buffer (25 uL) (composition (in mM): 137 NaI, 1.5 K2PO4, 8.1 NaH2PO4, 2.7 KCl, 0.5 MgCl2, 1 CaCl2) was added and a second fluorescence reading was made after approximately 21 seconds. Data treatment involved division of the second fluorescence reading by the initial fluorescence reading, then scaling of the resulting normalized endpoint fluorescence with respect to the responses for DMSO (0%) and a positive control potentiator (100%).

CFTR = CFTR (Homo sapiens, UniProt P13569); experiment: Ussing Chamber Electrophysiology Assay of CFTR Potentiation in CF Bronchial Epithelial Cells; type: cell-based; settings: primary CF hBE cells, short-circuit current, scaled to DMSO (0%) and positive control potentiator (100%)
Text: Ussing Chamber Electrophysiology Assay of CFTR Potentiation in CF Bronchial Epithelial Cells
Primary cystic fibrosis human bronchial epithelial (CF hBE) cells were expanded and cultured according to published methods (Neuberger et al., Ch. 4 of Cystic Fibrosis, Methods in Molecular Biology vol. 741, pp. 39-54 (2011)). Well-differentiated cells (>30 days at air/liquid interface) on Snapwell filters (Corning Costar, cat. no. 3801) were mounted in Ussing chambers (Physiologic Instruments, Inc., San Diego, Calif.). F508del/F508del cultures were assayed at 27° C. and G551D/F508del cells were assayed at 35° C. HEPES buffered physiological saline (composition (in mM): 137 NaCl, 4 KCl, 1 MgCl2, 1.8 CaCl2, 10 HEPES Na) was used in both apical and basolateral chambers. Chambers were bubbled with air to promote mixing and the voltage was clamped to zero. Amiloride (30 uM), forskolin (10 uM), test compound (4 increasing concentrations), and CFTRinh-172 (20 uM) were added sequentially with 20-25 minutes between additions. Short-circuit currents were acquired and analyzed using LabScribe2. Test compound responses were scaled relative to responses for DMSO (0%) and the maximal response of a positive control potentiator (100%).

F508del V470 CFTR, sequence (P13569 with tags, fused parts or gaps DEL508-508): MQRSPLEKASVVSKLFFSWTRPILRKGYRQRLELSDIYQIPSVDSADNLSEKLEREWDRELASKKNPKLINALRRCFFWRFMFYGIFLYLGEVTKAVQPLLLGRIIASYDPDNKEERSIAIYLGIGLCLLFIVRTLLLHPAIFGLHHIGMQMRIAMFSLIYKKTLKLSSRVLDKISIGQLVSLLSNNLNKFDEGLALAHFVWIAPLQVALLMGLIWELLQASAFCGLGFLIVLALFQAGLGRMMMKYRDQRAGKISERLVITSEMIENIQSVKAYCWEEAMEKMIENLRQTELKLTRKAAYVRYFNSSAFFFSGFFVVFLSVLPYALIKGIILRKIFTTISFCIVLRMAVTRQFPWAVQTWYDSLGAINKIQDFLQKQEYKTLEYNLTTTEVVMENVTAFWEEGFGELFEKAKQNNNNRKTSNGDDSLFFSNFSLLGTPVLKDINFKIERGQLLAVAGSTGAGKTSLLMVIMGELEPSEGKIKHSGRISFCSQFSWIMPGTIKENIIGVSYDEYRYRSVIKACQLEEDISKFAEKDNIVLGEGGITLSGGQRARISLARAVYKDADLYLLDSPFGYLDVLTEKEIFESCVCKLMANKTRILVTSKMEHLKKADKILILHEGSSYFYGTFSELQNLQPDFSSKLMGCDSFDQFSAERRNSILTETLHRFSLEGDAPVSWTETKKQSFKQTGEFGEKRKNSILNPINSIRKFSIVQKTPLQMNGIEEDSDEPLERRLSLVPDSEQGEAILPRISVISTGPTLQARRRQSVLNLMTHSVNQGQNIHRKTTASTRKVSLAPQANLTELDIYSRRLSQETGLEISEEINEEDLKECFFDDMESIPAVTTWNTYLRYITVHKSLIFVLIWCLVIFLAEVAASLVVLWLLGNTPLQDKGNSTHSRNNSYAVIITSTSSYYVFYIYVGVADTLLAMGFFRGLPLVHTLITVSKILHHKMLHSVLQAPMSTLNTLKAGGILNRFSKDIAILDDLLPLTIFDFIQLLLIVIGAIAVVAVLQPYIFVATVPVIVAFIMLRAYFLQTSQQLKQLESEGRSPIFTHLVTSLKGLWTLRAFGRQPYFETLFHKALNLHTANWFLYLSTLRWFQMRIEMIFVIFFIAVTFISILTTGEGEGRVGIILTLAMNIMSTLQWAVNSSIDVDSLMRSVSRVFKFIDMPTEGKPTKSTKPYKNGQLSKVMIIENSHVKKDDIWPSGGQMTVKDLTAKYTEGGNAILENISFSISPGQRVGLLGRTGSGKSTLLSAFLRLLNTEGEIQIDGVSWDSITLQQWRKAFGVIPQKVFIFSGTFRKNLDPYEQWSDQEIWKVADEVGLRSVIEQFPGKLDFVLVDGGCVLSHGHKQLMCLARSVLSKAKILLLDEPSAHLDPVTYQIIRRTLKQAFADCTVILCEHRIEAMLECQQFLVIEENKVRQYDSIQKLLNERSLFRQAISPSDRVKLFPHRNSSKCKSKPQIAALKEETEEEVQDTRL

| SMILES | EC50 (F508del V470 CFTR) [nM] | EC50 (CFTR) [nM] |
| --- | --- | --- |
| CCC(c1cnn(C(C)C)c1)c1c(C#N)c(-c2cnc(C(F)(F)F)nc2)c2c(N)ncnn12 (single isomer, unassigned) [Example 10, 4-amino-7-{1-[1-(propan-2-yl)-1H-pyrazol-4-yl]propyl}-5-[2-(trifluoromethyl)pyrimidin-5-yl]pyrrolo[2,1-f][1,2,4]triazine-6-carbonitrile] | 95.9 | 48 |
| CCC(c1cn(-c2ccc(F)cc2F)nn1)c1c(C#N)c(-c2cnc(C(F)(F)F)nc2)c2c(N)ncnn12 (single isomer, unassigned) [Example 7, 4-amino-7-{1-[1-(2,4-difluorophenyl)-1H-1,2,3-triazol-4-yl]propyl}-5-[2-(trifluoromethyl)pyrimidin-5-yl]pyrrolo[2,1-f][1,2,4]triazine-6-carbonitrile] | 45.2 | 33.5 |
| CCC(c1cnn(-c2ccc(F)cc2F)c1)c1c(C#N)c(-c2cnc(C(F)(F)F)nc2)c2c(N)ncnn12 (single isomer, unassigned) [Example 16, 4-amino-7-{1-[1-(2,4-difluorophenyl)-1H-pyrazol-4-yl]propyl}-5-[2-(trifluoromethyl)pyrimidin-5-yl]pyrrolo[2,1-f][1,2,4]thazine-6-carbonitrile] | 0.56 | 0.42 |
| CCC(c1cnn(C(C)C)c1)c1c(C#N)c(-c2cnc(C(F)(F)F)nc2)c2c(N)ncnn12 (single isomer, unassigned) [Example 11, 4-amino-7-{1-[1-(propan-2-yl)-1H-pyrazol-4-yl]propyl}-5-[2-(trifluoromethyl)pyrimidin-5-yl]pyrrolo[2,1-f][1,2,4]triazine-6-carbonitrile] | 4.17 | 6.96 |
| CCC(c1cn(-c2ccccc2F)nn1)c1cc(-c2cncnc2OC)c2c(N)ncnn12 (single isomer, unassigned) [Example 66, 7-{1-[1-(2-fluorophenyl)-1H-1,2,3-triazol-4-yl]propyl}-5-(4-methoxypyrimidin-5-yl)pyrrolo[2,1-f][1,2,4]triazin-4-amine] | 524 | 123 |
| CC(c1cn(-c2ccccc2F)nn1)c1cc(-c2cnc(C(F)(F)F)nc2)c2c(N)ncnn12 (single isomer, unassigned) [Example 53, 7-{1-[1-(2-fluorophenyl)-1H-1,2,3-triazol-4-yl]ethyl}-5-[2-(trifluoromethyl)pyrimidin-5-yl]pyrrolo[2,1-f][1,2,4]triazin-4-amine] | 76.4 | 171 |
| CCC(c1cnn(-c2ccccc2F)c1)n1nc(-c2cnc(C(F)(F)F)nc2)c2c(N)ncnc21 (single isomer, unassigned) [Example 88, 1-{1-[1-(2-fluorophenyl)-1H-pyrazol-4-yl]propyl}-3-[2-(trifluoromethyl)pyrimidin-5-yl]-1H-pyrazolo[3,4-d]pyrimidin-4-amine] | 78.8 | 31 |
| CC(O)(c1cn(-c2ccccc2F)nn1)c1cc(-c2cnc(C(F)(F)F)nc2)c2c(N)ncnn12 (single isomer, unassigned) [Example 67, 1-{4-amino-5-[2-(trifluoromethyl)pyrimidin-5-yl]pyrrolo[2,1-f][1,2,4]triazin-7-yl}-1-[1-(2-fluorophenyl)-1H-1,2,3-triazol-4-yl]ethanol] | 50.5 | 147 |
| CCC(c1cn(-c2ccc(F)c(F)c2)nn1)c1cc(-c2cnc(C(F)(F)F)nc2)c2c(N)ncnn12 (single isomer, unassigned) [Example 64, 7-{1-[1-(3,4-difluorophenyl)-1H-1,2,3-triazol-4-yl]propyl}-5-[2-(trifluoromethyl)pyrimidin-5-yl]pyrrolo[2,1-f][1,2,4]triazin-4-amine] | 479 | 177 |
| CCC(c1cn(-c2cc(F)ccc2F)nn1)c1c(C#N)c(-c2cnc(C(F)(F)F)nc2)c2c(N)ncnn12 (single isomer, unassigned) [Example 8, 4-amino-7-{1-[1-(2,5-difluorophenyl)-1H-1,2,3-triazol-4-yl]propyl}-5-[2-(trifluoromethyl)pyrimidin-5-yl]pyrrolo[2,1-f][1,2,4]triazine-6-carbonitrile] | 17.2 | 13 |
| CCC(c1cnn(-c2ccccc2F)c1)c1c(C#N)c(-c2cnc(C(F)(F)F)nc2)c2c(N)ncnn12 (single isomer, unassigned) [Example 15, 4-amino-7-{1-[1-(2-fluorophenyl)-1H-pyrazol-4-yl]propyl}-5-[2-(trifluoromethyl)pyrimidin-5-yl]pyrrolo[2,1-f][1,2,4]triazine-6-carbonitrile] | 0.56 | 0.2 |
| CC(c1cn(-c2ccc(F)cc2F)nn1)c1c(C#N)c(-c2cnc(C(F)(F)F)nc2)c2c(N)ncnn12 (stereo not shown) [Example 24, 4-amino-7-{1-[1-(2,4-difluorophenyl)-1H-1,2,3-triazol-4-yl]ethyl}-5-[2-(trifluoromethyl)pyrimidin-5-yl]pyrrolo[2,1-f][1,2,4]triazine-6-carbonitrile] | 28.7 | 20.9 |
| CCC(c1cn(-c2ccccc2F)nn1)n1nc(-c2cnc(C(F)(F)F)nc2)c2c(N)ncnc21 (single isomer, unassigned) [Example 90, 1-{1-[1-(2-fluorophenyl)-1H-1,2,3-triazol-4-yl]propyl}-3-[2-(trifluoromethyl)pyrimidin-5-yl]-1H-pyrazolo[3,4-d]pyrimidin-4-amine] | 31.8 | 31.5 |
| CCC(c1cn(-c2ccccc2F)nn1)c1c(C#N)c(-c2cnc(C(F)(F)F)nc2)c2c(N)ncnn12 (single isomer, unassigned) [Example 4, 4-amino-7-{1-[1-(2-fluorophenyl)-1H-1,2,3-triazol-4-yl]propyl}-5-[2-(trifluoromethyl)pyrimidin-5-yl]pyrrolo[2,1-f][1,2,4]triazine-6-carbonitrile] | 35.8 | 20.5 |
| CCC(c1cnn(-c2ccccc2F)c1)n1nc(-c2cnc(C(F)(F)F)nc2)c2c(N)ncnc21 (single isomer, unassigned) [Example 87, 1-{1-[1-(2-fluorophenyl)-1H-pyrazol-4-yl]propyl}-3-[2-(trifluoromethyl)pyrimidin-5-yl]-1H-pyrazolo[3,4-d]pyrimidin-4-amine] | 4.76 | 1.53 |
| CCC(c1cn(-c2ccc(F)cc2F)nn1)c1cc(-c2cnc(C(F)(F)F)nc2)c2c(N)ncnn12 (single isomer, unassigned) [Example 60, 7-{1-[1-(2,4-difluorophenyl)-1H-1,2,3-triazol-4-yl]propyl}-5-[2-(trifluoromethyl)pyrimidin-5-yl]pyrrolo[2,1-f][1,2,4]triazin-4-amine] | 3.36 | 2 |
| CCC(c1cn(-c2cc(F)ccc2F)nn1)c1cc(-c2cnc(C(F)(F)F)nc2)c2c(N)ncnn12 (single isomer, unassigned) [Example 61, 7-{1-[1-(2,5-difluorophenyl)-1H-1,2,3-triazol-4-yl]propyl}-5-[2-(trifluoromethyl)pyrimidin-5-yl]pyrrolo[2,1-f][1,2,4]triazin-4-amine] | 253 | 73.7 |
| CCC(c1cn(-c2cc(F)ccc2F)nn1)c1cc(-c2cnc(C(F)(F)F)nc2)c2c(N)ncnn12 (single isomer, unassigned) [Example 62, 7-{1-[1-(2,5-difluorophenyl)-1H-1,2,3-triazol-4-yl]propyl}-5-[2-(trifluoromethyl)pyrimidin-5-yl]pyrrolo[2,1-f][1,2,4]triazin-4-amine] | 17.6 | 9.95 |
| CC(c1cn(-c2ccccc2F)nn1)c1c(C#N)c(-c2cnc(C(F)(F)F)nc2)c2c(N)ncnn12 (single isomer, unassigned) [Example 1, 4-amino-7-{1-[1-(2-fluorophenyl)-1H-1,2,3-triazol-4-yl]ethyl}-5-[2-(trifluoromethyl)pyrimidin-5-yl]pyrrolo[2,1-f][1,2,4]triazine-6-carbonitrile] | 46.8 | 51.1 |
| CCC(c1cn(-c2ccccc2F)nn1)n1nc(-c2cnc(C(F)(F)F)nc2)c2c(N)ncnc21 (single isomer, unassigned) [Example 89, 1-{1-[1-(2-fluorophenyl)-1H-1,2,3-triazol-4-yl]propyl}-3-[2-(trifluoromethyl)pyrimidin-5-yl]-1H-pyrazolo[3,4-d]pyrimidin-4-amine] | 219 | 189 |
